pIC50: −log10 of the molar value.
The compounds below were run against EGFR (Homo sapiens, UniProt P00533) (assay: Biochemical EGFR assay (ELISA, A431 cell lysate)). Conditions: read-out: bio EGFr IC50.
Parameters: A431 cell lysate (Screening Lab, SUGEN, Inc.); host or cells: A431
In short: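 EGFR captured from A431 cell lysate onto anti-EGFR-coated plates, then incubated with test compound for 30 min at room temperature. Tyrosine phosphorylation with ATP/MnCl2 was stopped with EDTA after 5 min and detected by anti-phosphotyrosine ELISA with peroxidase/ABTS read-out.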

Chain of EGFR (P00533 25-1210): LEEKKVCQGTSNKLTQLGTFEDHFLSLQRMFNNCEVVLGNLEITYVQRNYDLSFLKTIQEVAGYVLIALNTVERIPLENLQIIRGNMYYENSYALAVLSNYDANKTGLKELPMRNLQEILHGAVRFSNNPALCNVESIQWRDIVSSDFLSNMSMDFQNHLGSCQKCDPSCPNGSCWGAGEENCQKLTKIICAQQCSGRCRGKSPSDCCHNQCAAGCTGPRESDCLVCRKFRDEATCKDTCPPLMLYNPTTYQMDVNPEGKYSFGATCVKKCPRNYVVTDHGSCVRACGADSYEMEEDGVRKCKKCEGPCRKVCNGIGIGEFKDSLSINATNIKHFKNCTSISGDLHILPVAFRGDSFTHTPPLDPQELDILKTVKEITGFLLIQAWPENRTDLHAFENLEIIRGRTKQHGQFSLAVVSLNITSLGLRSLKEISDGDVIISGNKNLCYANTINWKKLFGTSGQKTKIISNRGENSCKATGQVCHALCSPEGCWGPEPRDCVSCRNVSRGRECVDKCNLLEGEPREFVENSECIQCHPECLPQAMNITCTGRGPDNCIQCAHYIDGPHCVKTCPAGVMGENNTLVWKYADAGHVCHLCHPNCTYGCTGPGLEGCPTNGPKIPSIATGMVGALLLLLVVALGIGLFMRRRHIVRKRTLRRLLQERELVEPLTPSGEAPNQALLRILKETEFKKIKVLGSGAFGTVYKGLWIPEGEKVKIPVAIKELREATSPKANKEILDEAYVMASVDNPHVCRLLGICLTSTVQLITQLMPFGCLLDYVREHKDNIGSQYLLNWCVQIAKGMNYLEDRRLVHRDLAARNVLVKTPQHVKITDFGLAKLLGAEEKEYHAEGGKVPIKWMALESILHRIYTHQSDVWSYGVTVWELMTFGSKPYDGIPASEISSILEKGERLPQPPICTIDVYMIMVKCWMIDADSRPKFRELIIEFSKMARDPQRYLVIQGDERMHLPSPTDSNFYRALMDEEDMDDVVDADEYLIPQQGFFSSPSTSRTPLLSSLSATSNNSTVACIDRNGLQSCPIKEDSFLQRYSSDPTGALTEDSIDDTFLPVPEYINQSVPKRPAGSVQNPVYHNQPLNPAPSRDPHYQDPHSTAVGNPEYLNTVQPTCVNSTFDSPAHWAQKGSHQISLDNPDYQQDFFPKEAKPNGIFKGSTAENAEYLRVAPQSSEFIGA

| pIC50 | Structure (SMILES) |
| --- | --- |
| < 4.00 | COc1cc(C)c(C=C2C(=O)Nc3ccccc32)cc1C(C)C [Example 8, 3-(5-Isopropyl-4-methoxy-2-methylbenzylidene)-1,3-dihydroindol-2-one] |
| < 4.00 | COc1cc(C)c(/C=C2/C(=O)Nc3ccc(Br)cc32)cc1C(C)C [Example 36, 5-Bromo-3-(5-isopropyl-4-methoxy-2-methyl-benzylidene)-1,3-dihydroindol-2-one] |
| < 4.00 | COc1c(C(C)C)cc(/C=C2/C(=O)Nc3cc(NC(=O)OC(C)(C)C)ccc32)cc1C(C)C [Example 52, [3-(3,5-Diisopropyl-4-methoxybenzylidene)-2-oxo-2,3-dihydro-1H-indol-6-yl]-carbamic acid tert-butyl ester] |
| < 4.00 | O=C1Nc2ccccc2/C1=C\c1ccc2c(c1)CCO2 [Example 66, 3-(2,3-Dihydrobenzofuran-5-ylmethylene)-1,3-dihydroindol-2-one] |
| < 4.00 | COc1ccccc1-c1ccc2c(c1)NC(=O)/C2=C\c1[nH]c(C)cc1CCC(=O)O [Example 109, 3-{2-[6-(2-Methoxyphenyl)-2-oxo-1,2-dihydroindol-3-ylidenemethyl]-5-methyl-1H-pyrrol-3-yl}-propionic acid] |
| < 4.00 | CC1(C)CCc2cc(/C=C3/C(=O)Nc4ccc(F)cc43)ccc2O1 [Example 23, 3-(2,2-Dimethylchroman-6-ylmethylene)-5-fluoro-1,3-dihydroindol-2-one] |
| < 4.00 | CC1(C)CCc2cc(/C=C3/C(=O)Nc4ccc(Cl)cc43)ccc2O1 [Example 15, 5-Chloro-3-(2,2-dimethyl-chroman-6-ylmethylene)-1,3-dihydroindol-2-one] |
| 4.62 | COc1cc(C)c(/C=C2/C(=O)Nc3ncccc32)cc1C(C)C [Example 45, 3-(5-Isopropyl-4-methoxy-2-methylbenzylidene)-1,3-dihydro-pyrrolo[2,3-b]pyridin-2-one] |
| < 4.00 | Cc1cccc2c1/C(=C/c1ccc3c(c1)CCC(C)(C)O3)C(=O)N2 [Example 41, 3-(2,2-Dimethylchroman-6-ylmethylene)-4-methyl-1,3-dihydroindol-2-one] |
| < 4.00 | COc1ccc(/C=C2\C(=O)Nc3cccc(C)c32)cc1C1CCCC1 [Example 48, 3-(3-Cyclopentyl-4-methoxybenzylidene)-4-methyl-1,3-dihydroindol-2-one] |
| < 4.00 | COc1ccc(/C=C2\C(=O)Nc3cccc(C)c32)cc1C(C)C [Example 38, 3-(3-Isopropyl-4-methoxybenzylidene)-4-methyl-1,3-dihydroindol-2-one] |
| < 4.00 | CC(=O)Nc1ccc2c(c1)NC(=O)/C2=C/c1ccc(OCCN2CCOCC2)c(-c2ccsc2)c1 [Example 50, N-{3-[4-(2-Morpholin-4-ylethoxy)-3-thiophen-3-ylbenzylidene]-2-oxo-2,3-dihydro-1H-indol-6-yl}-acetamide] |
| < 4.00 | Cc1cccc2c1/C(=C/c1ccc3c(c1)CCO3)C(=O)N2 [Example 69, 3-(2,3-Dihydrobenzofuran-5-ylmethylene)-4-methyl-1,3-dihydroindol-2-one] |
| < 4.00 | COc1cc(C)c(/C=C2/C(=O)Nc3ccc(F)cc32)cc1C(C)C [Example 30, 5-Fluoro-3-(5-isopropyl-4-methoxy-2-methyl-benzylidene)-1,3-dihydroindol-2-one] |
| < 4.00 | COc1ccc(/C=C2/C(=O)Nc3ccccc32)cc1C1CCCC1 [Example 10, 3-(3-Cyclopentyl-4-methoxybenzylidene)-1,3-dihydroindol-2-one] |
| < 4.00 | COc1cc(C=C2C(=O)Nc3ccccc32)c(-c2ccccc2OC)cc1OC [Example 49, 3-(4,5,2′-Trimethoxybiphenyl-2-ylmethylene)-1,3-dihydroindol-2-one] |

| pIC50 | Structure (SMILES) |
| --- | --- |
| < 4.00 | CC(=O)Nc1ccc2c(c1)NC(=O)/C2=C/c1ccc(OCCN2CCOCC2)c(C2CCCCC2)c1 [Example 16, N-{3-[3-Cyclohexyl-4-(2-morpholin-4-ylethoxy)-benzylidene]-2-oxo-2,3-dihydro-1H-indol-6-yl}-acetamide] |
| < 4.00 | CCOC(=O)c1c(C)[nH]c(/C=C2\C(=O)Nc3cc(-c4ccccc4OC)ccc32)c1CCC(=O)O [Example 110, 4-(2-Carboxyethyl)-5-[6-(2-methoxyphenyl)-2-oxo-1,2-dihydro-indol-3-ylidenemethyl]-2-methyl-1H-pyrrol-3-yl-carboxylic acid ethyl ester] |
| < 4.00 | CNS(=O)(=O)c1ccc2c(c1)C(=Cc1[nH]c3ccccc3c1C)C(=O)N2 (racemic) [Example 154, 3-(3-Methyl-1H-indol-2-ylmethylene)-2-oxo-2,3-dihydro-1H-indole-5-sulfonic acid methylamide] |
| < 4.00 | COc1ccc(/C=C2/C(=O)Nc3ccc(Cl)cc32)cc1-c1cccs1 [Example 59, 5-chloro-3-(4-Methoxy-3-thiophen-2-ylbenzylidene)-1,3-dihydroindol-2-one] |
| < 4.00 | COc1ccc(/C=C2/C(=O)Nc3ccccc32)cc1C(C)C [Example 7, 3-(3-Isopropyl-4-methoxybenzylidene)-1,3-dihydroindol-2-one] |
| < 4.00 | COc1c(C(C)C)cc(/C=C2/C(=O)Nc3ccc(C(C)=O)cc32)cc1C(C)C [Example 5, 5-Acetyl-3-(3,5-diisopropyl-4-methoxybenzylidene)-1,3dihydroindol-2-one] |
| < 4.00 | COc1cc(C)c(C=C2C(=O)Nc3cc(NC(C)=O)ccc32)cc1C(C)C [Example 27, N-[3-(5-Isopropyl-4-methoxy-2-methyl-benzylidene)-2-oxo-2,3-dihydro-1H-indol-6-yl]-acetamide] |
| < 4.00 | O=C1Nc2ccc(Br)cc2/C1=C/c1cc2ccccc2[nH]1 [Example 165, 5-Bromo-3-(1H-indol-2-ylmethylene)-1,3-dihydro-indol-2-one] |
| < 4.00 | COc1ccc(/C=C2/C(=O)Nc3cc(NC(C)=O)ccc32)cc1-c1cccs1 [Example 31, N-[3-(4-Methoxy-3-thiophen-2-ylbenzylidene)-2-oxo-2,3-dihydro-1H-indol-6-yl]-acetamide] |
| < 4.00 | COc1ccc(/C=C2\C(=O)Nc3cccc(C)c32)cc1C1CCCCC1 [Example 68, 3-(3-Cyclohexyl-4-methoxybenzylidene)-4-methyl-1,3-dihydroindol-2-one] |
| < 4.00 | COc1ccc(/C=C2/C(=O)Nc3cc(NC(C)=O)ccc32)cc1-c1ccsc1 [Example 18, N-[3-(4-Methoxy-3-thiophene-3-ylbenzylidene)-2-oxo-2,3-dihydro-1H-indol-6-yl]-acetamide] |
| < 4.00 | COc1ccc(C=C2C(=O)Nc3cc(NC(C)=O)ccc32)cc1-c1cccc(NC(C)=O)c1 (mixture of isomers) [Example 63, N-[3-(3′-Acetylamino-6-methoxybiphenyl-3-ylmethylene)-2-oxo-2,3-dihydro-1H-indol-6-yl]-acetamide] |
| < 4.00 | COc1c(C(C)C)cc(/C=C2/C(=O)Nc3cc(N)ccc32)cc1C(C)C [Example 32, 6-Amino-3-(3,5-diisoprotyl-4-methoxy-benzylidene)-1,3-dihydroindol-2-one] |
| < 4.00 | COc1c(C(C)C)cc(/C=C2/C(=O)Nc3ccc(N)cc32)cc1C(C)C [Example 20, 5-Amino-3-(3,5-diisopropyl-4-methoxy-benzylidene)-1,3-dihydroindol-2-one] |
| < 4.00 | COc1c(C(C)C)cc(/C=C2/C(=O)Nc3ccc(C)cc32)cc1C(C)C [Example 19, 3-(3,5-Diisopropyl-4-methoxybenzylidene)-5-methyl-1,3-dihydroindol-2-one] |

Source: US6855730B2, “3-methylidenyl-2-indolinone modulators of protein kinase” (Sugen, Inc., priority 1998, dated 2005)
